From patent US20240285808A1, “MOLECULAR PROBES FOR IN VIVO DETECTION OF ALDEHYDES” (The General Hospital Corporation, priority 2021, published 2024)

Assays:
[1] = Biodistribution of ^nat/52Mn-based probes in naïve mice; assay type: in vivo, mouse; details: 24 h post injection
Description: Example 32. Radiolabeling of Compounds 15-18 with ^52Mn and Preparation of ^52/natMn Complex
^52MnCl2 (5 mCi) was received from the cyclotron facility at the Alabama at Birmingham and diluted to 500 μL with 0.1 M HCl. Solution of […] (50 μL, 1.0 mg in 1 mL of 1.5 M NaOAc buffer, pH 4.5) was mixed with 50 μL of ^52MnCl2. The reaction mixture was kept at room temperature for 15 min and diluted with 200 μL of sterile PBS. The injected dose of ^52/natMn complex was obtained by mixing solution of ^52Mn labeled Compound 15-18 with stock solution of ^natMn labeled Compound 15-18 (^natMn final concentration: 30 mM).
Bleomycin-injured mice at 14 days after injury were sedated and then injected with Compound 19, Compound 20, Gd-CHyd (Akam, E. A., et al. Improving the reactivity of hydrazine-bearing MRI probes for in vivo imaging of lung fibrogenesis. Chemical Science 11, 224-231 (2020)) formulated to contain an equal concentration of Eu-DOTA as a non-binding control probe. Animals were then euthanized at 30 minutes after injection. The lungs were harvested separately, along with blood, tail and liver. Each sample was analyzed by ICP-MS for gadolinium and europium content, and the lungs were also assessed for hydroxyproline content. Selectivity is reported as the ratio of Gd to Eu. All animals were dosed via tail vein injection at 100 nmol/g body weight from 30 mM solutions of gadolinium probes with 30 mM Eu-DOTA as determined by ICP-MS. For PET probes, Compounds 1-8 were radiolabeled with either ^68Ga or ^64Cu and the dose was delivered as a bolus injection through tail vein. Animals were euthanized 90 min post injection and their organs and tissues were harvested and counted using a gamma counter. For an imaging study with a PET tracer, animals were injected inside PET/MRI scanner and scanned dynamically for 60 min under anesthesia. The animals were euthanized 90 min post injection and their organs and tissues were counted using a gamma counter. The biodistribution of Mn-15, Mn-16, Mn-17, and Mn-18 was determined by injecting a mixture of ^52/nat complex into naïve mice and activity in each tissue were measured 24 hours post injection.

[2] = Reaction rates with butyraldehyde by UV-visible measurements (Method D); assay type: physicochemical; details: for k (second order / condensation rate constant): Method d: butyraldehyde 1 mM, Mn complex 0.04-0.10 mM, 25° C., PBS, absorbance 220 nm
Description: Method D: Reaction Rates with UV-Visible Measurements.
The molar extinction coefficient at 220 nm (ε220) of Mn-15, Mn-16 and Mn-17 was calculated using Beer-Lambert Law: A220=ε220Cl; where A220 is the absorbance at wavelength 220 nm, C is the concentration (M), and l is the cell path length (cm).
The kinetics for reactions of Mn-15, Mn-16 and Mn-17 with butyraldehyde were monitored spectrophotometrically by measuring the change in absorbance at 220 nm. All reactions were carried out at 25° C. in PBS. In each experiment [butyraldehyde]=1 mM and the concentrations of Mn-complex, 0.04 mM, 0.06 mM, 0.08 mM, and 0.10 mM, were varied to estimate the rate law.
At the beginning of the reaction (t=0), the concentration of the starting Mn complex is a0 and the concentration of the aldehyde condensation product is zero. After time t the concentration of the product is x, and the concentration of remaining Mn complex starting material is a0-x. For a first-order reaction
where I is the constant of integration and kobs is the observed rate constant. The rate law and a corresponding second order rate constant k were estimated by plotting reaction velocity as a function of Mn—N(where Mn—N refers to Mn-15, Mn-16, or Mn-17) concentration.
The concentration of Mn—N-Ald (where Mn-Ald refers to the reaction product with either Mn-15, Mn-16, or Mn-17) can be estimated by the following equations, where A0 is the absorbance of Mn—N and A is the absorbance of reaction mixture after time t,
The novel Mn-PC2A derivatives (FIG. 1A) were synthesized in 6 steps from the pyclen macrocycle. Hydrazone formation kinetics with butyraldehyde as a model compound were measured by UV spectroscopy at 220 nm, 25° C., pH 7.4, PBS. Hydrazone hydrolysis kinetics were measured by HPLC with UV detection at 220 nm using excess formaldehyde to trap the liberated hydrazine and prevent the reverse reaction. Allysine-modified BSA (BSA-Ald, 17.4 mg/mL, […] aldehyde) as a soluble model protein or BSA (17.3 mg/mL, 16.8 μM aldehyde) and Mn-15 or Mn-17 (50-200 μM) were incubated at 37° C. for 3 hours, and 1/T1 was measured at 1.4 T, 37° C., and plotted vs concentration to obtain relaxivity. The protein bound probe was isolated by ultrafiltration and the relaxivity of the protein-bound fraction measured. All Mn concentrations were measured by ICP-MS. Liver fibrosis was induced in male C57BL/6 mice by oral gavage with CCl4 for 12 weeks, 2-3 times per week, while control mice received vehicle (olive oil). 3D FLASH images (TR/TE/FA=15 ms/2 ms/30°, 0.25 mm^3 spatial resolution) were acquired on a 4.7 T Bruker Biospec prior to and dynamically for 40 min p.i. of 100 μmol/kg Mn-15. Liver to muscle contrast to noise was calculated as CNR=(SILiver−SIMuscle)/SDAir where SI=signal intensity and SD=standard deviation in SI.

Structure (SMILES)	Biodistribution, Blood [1] [% ID/g]	Biodistribution, Bone [1] [% ID/g]	Biodistribution, Brain [1] [% ID/g]	Biodistribution, Heart [1] [% ID/g]	Biodistribution, Intestine [1] [% ID/g]	Biodistribution, Kidney [1] [% ID/g]	Biodistribution, Liver [1] [% ID/g]	Biodistribution, Lung [1] [% ID/g]	Biodistribution, Muscle [1] [% ID/g]	Biodistribution, Skin [1] [% ID/g]	Biodistribution, Spleen [1] [% ID/g]	Biodistribution, Stomach [1] [% ID/g]	k (second order / condensation rate constant) [2] [M⁻¹ s⁻¹]	fold higher condensation (hydrazone formation) rate constant compared to Mn-17 [2] [fold]
NOC(CCC(=O)NCCCN1CCN(CC(=O)[O-])Cc2cccc(n2)CN(CC(=O)[O-])CC1)C(=O)O.[Mn+2] (stereo not shown) [Mn-16]	0.0051	0.1378	0.0275	0.1579	0.1330	0.9664	0.3950	0.4469	0.0669	0.9457	0.1978	0.1638	2.5	–
NNCC(=O)NCCCN1CCN(CC(=O)[O-])Cc2cccc(n2)CN(CC(=O)[O-])CC1.[Mn+2] [Mn-17]	0.0020	0.0414	0.0170	0.0675	0.0556	0.5387	0.2125	0.1954	0.0196	0.0925	0.0965	0.0681	4.6	–
NNC(CCC(=O)NCCCN1CCN(CC(=O)[O-])Cc2cccc(n2)CN(CC(=O)[O-])CC1)C(=O)O.[Mn+2] (stereo not shown) [Mn-15]	0.0018	0.0385	0.0156	0.0532	0.0665	0.7021	0.2186	0.1312	0.0154	0.0719	0.0843	0.0759	12.1	3
CN(C)C(CCC(=O)NCCCN1CCN(CC(=O)[O-])Cc2cccc(n2)CN(CC(=O)[O-])CC1)C(=O)O.[Mn+2] (stereo not shown) [Mn-18]	0.0013	0.0227	0.0145	0.0364	0.0355	0.5290	0.1833	0.0599	0.0132	0.0243	0.0616	0.0477	–	–
